Here are results for 4 compounds from DBAASP.

Holding throughout (assay): ≥ marks a high value that may be exact or a test limit, other limits are often not marked, values filed in µg/mL are converted to µM
Experiment [1] deals with Candida albicans.
Experiment [2] deals with Escherichia coli K-12 D31.
For experiment [3], the system named is Staphylococcus warneri.
Experiment [4] concerns Staphylococcus saprophyticus.
The subject of experiment [5] is Staphylococcus haemolyticus.
The test system of experiment [6] is Salmonella enterica.
The subject of experiment [7] is Staphylococcus aureus.
Experiment [8] relates to Bacillus subtilis.
Experiment [9] has as its system Morganella morganii.
In experiment [10] the test system is Escherichia coli DH5alpha.
The test system of experiment [11] is Enterococcus faecium.
Experiment [12] has as its system Saccharomyces cerevisiae.
Experiment [13] relates to Klebsiella pneumoniae ATCC 700603.
Experiment [14] has as its system Escherichia coli ATCC 25726.
Experiment [15] relates to Acinetobacter baumannii NM8.
Experiment [16] deals with Candida albicans ATCC 90028.
The subject of experiment [17] is Pseudomonas aeruginosa ATCC 27853.
In experiment [18] the test system is Staphylococcus epidermidis RP62A/1.
Experiment [19] relates to Staphylococcus epidermidis RP62A.
Experiment [20] concerns Stenotrophomonas maltophilia B32/4.
Experiment [21] deals with Staphylococcus aureus ATCC 25923.
Experiment [22] has as its system Enterococcus faecalis.
For experiment [23], the system named is Microsporum canis.
Experiment [24] relates to Aspergillus fumigatus.
For experiment [25], the system named is Trichophyton simii.
Experiment [26] relates to Nocardia brasiliensis.
The test system of experiment [27] is Trichophyton rubrum.
For experiment [28], the system named is Aeromonas caviae.
For experiment [29], the system named is Aspergillus niger.
In experiment [30] the test system is Cryptococcus neoformans.
Experiment [31] deals with Escherichia coli.
Experiment [32] concerns Vibrio alginolyticus.
In experiment [33] the test system is Helicobacter pylori ATCC 43504.
Experiment [34] relates to Helicobacter pylori ATCC 43629.
For experiment [35], the system named is Streptococcus agalactiae BCRC 10787.
The test system of experiment [36] is Helicobacter pylori.
For experiment [37], the system named is Helicobacter pylori ATCC 700392.
Experiment [38] deals with Vibrio vulnificus 204.
For experiment [39], the system named is Aeromonas hydrophila BCRC 13018.
Experiment [40] has as its system Enterococcus faecalis BCRC 10066.
The test system of experiment [41] is Pseudomonas aeruginosa ATCC 19660.
Experiment [42] has as its system Streptococcus agalactiae 819.

Converted amounts (≈) assume the structure as drawn.

A word on the MIC: it is the lowest concentration that inhibits growth of the organism. Low readings indicate inhibition by little substance, high ones a need for much substance. `CC[C@H](C)[C@H](NC(=O)[C@H](CC(C)C)NC(=O)[C@H](CCCCN)NC(=O)CNC(=O)[C@H](C)NC(=O)[C@H](Cc1cnc[nH]1)NC(=O)[C@@H](NC(=O)[C@H](CC(C)C)NC(=O)CNC(=O)[C@H](Cc1cnc[nH]1)NC(=O)[C@H](Cc1ccccc1)NC(=O)[C@@H](NC(=O)[C@H](CC(C)C)NC(=O)CNC(=O)[C@H](CC(C)C)NC(=O)[C@@H](N)Cc1ccccc1)[C@@H](C)CC)C(C)C)C(=O)N[C@@H](Cc1cnc[nH]1)C(=O)NCC(=O)N[C@@H](CC(C)C)C(=O)N[C@H](C(=O)N[C@@H](Cc1cnc[nH]1)C(=O)N[C@@H](CCCN=C(N)N)C(=O)N[C@@H](CC(N)=O)C(=O)N[C@@H](CCCN=C(N)N)C(=O)NCC(=O)O)[C@@H](C)CC` [FLGLIFHGLVHAGKLIHGLIHRNRG]: the MIC in experiment [1] came to 96 µM (≈ 267 µg/mL); in experiment [2] it was 3 µM (≈ 8.33 µg/mL); in experiment [3], 15 µM (≈ 41.6 µg/mL); in [4] it was 7.5 µM (≈ 20.8 µg/mL); in experiment [5], 7.5 µM (≈ 20.8 µg/mL); in experiment [6], 6 µM (≈ 16.7 µg/mL). The minimum inhibitory concentration (MIC) in experiment [7] was 1.5 µM (≈ 4.16 µg/mL); in [8] it was at least 48 µM; in experiment [9] it was 12 µM (≈ 33.3 µg/mL); in [10], 7.5 µM (≈ 20.8 µg/mL); in [11], 15 µM (≈ 41.6 µg/mL); in experiment [12], at least 384 µM.
As for `CC[C@H](C)[C@H](N)C(=O)N[C@@H](CC(C)C)C(=O)NCC(=O)N[C@@H](C)C(=O)N[C@H](C(=O)N[C@@H](CC(C)C)C(=O)N1CCC[C@H]1C(=O)N[C@@H](CC(C)C)C(=O)N[C@H](C(=O)N[C@@H](CO)C(=O)NCC(=O)N[C@@H](CC(C)C)C(=O)N[C@@H](CC(C)C)C(=O)N[C@@H](CO)C(=O)N[C@@H](CC(N)=O)C(=O)N[C@@H](CCCCN)C(=O)N[C@@H](CC(C)C)C(N)=O)C(C)C)[C@@H](C)CC` [ILGAILPLVSGLLSNKL], the minimum inhibitory concentration (MIC) in experiment [13] was above 256 µM; in experiment [14] it was at least 256 µM; in experiment [15], at least 128 µM; in experiment [16], at least 64 µM; in [17], above 256 µM; in experiment [18], at least 128 µM. Besides, the MIC in [19] was at least 128 µM; in experiment [20], at least 256 µM; in experiment [21], 128 µM (≈ 220 µg/mL).
`CC[C@H](C)[C@H](NC(=O)[C@H](Cc1ccc(O)cc1)NC(=O)[C@H](Cc1cnc[nH]1)NC(=O)[C@H](CCCN=C(N)N)NC(=O)[C@H](CC(C)C)NC(=O)[C@H](C)NC(=O)[C@@H](NC(=O)[C@H](CC(C)C)NC(=O)[C@H](Cc1ccc(O)cc1)NC(=O)[C@H](CCCCN)NC(=O)[C@H](CC(N)=O)NC(=O)[C@H](CCSC)NC(=O)[C@H](CCC(=O)O)NC(=O)[C@H](CCC(=O)O)NC(=O)[C@@H]1CCCN1)[C@@H](C)O)C(=O)N[C@@H](CC(N)=O)C(=O)N[C@@H](CC(C)C)C(=O)N[C@H](C(=O)N[C@H](C(=O)N[C@@H](CCCN=C(N)N)C(=O)N[C@@H](CCC(N)=O)C(=O)N[C@@H](CCCN=C(N)N)C(=O)N[C@@H](Cc1ccc(O)cc1)C(N)=O)[C@@H](C)O)C(C)C` [PEEMNKYLTALRHYINLVTRQRY]: the minimal inhibitory concentration (MIC) in [22] was found to be 3.44 µM (≈ 10 µg/mL); in [23], 3.44 µM (≈ 10 µg/mL); in experiment [1] it was 5.16 µM (≈ 15 µg/mL); in [24] it was 27.5 µM (≈ 80 µg/mL); in [25], 3.44 µM (≈ 10 µg/mL); in experiment [26], 6.87 µM (≈ 20 µg/mL). Moreover, the MIC was 5.16 µM (≈ 15 µg/mL) in [27]; 13.7 µM (≈ 40 µg/mL) in [28]; at least 34.4 µM in experiment [29]; 6.87 µM (≈ 20 µg/mL) in experiment [30]; 3.44 µM (≈ 10 µg/mL) in experiment [31].
Turning to `CC[C@H](C)[C@H](NC(=O)[C@H](CC(C)C)NC(=O)[C@H](CCC(=O)O)NC(=O)[C@H](CCC(N)=O)NC(=O)[C@H](CC(C)C)NC(=O)[C@@H](NC(=O)[C@H](CCCCN)NC(=O)[C@H](CCC(N)=O)NC(=O)[C@@H](NC(=O)[C@@H](NC(=O)[C@H](CCC(=O)O)NC(=O)CNC(=O)[C@H](CO)NC(=O)[C@@H](NC(=O)[C@H](CCC(N)=O)NC(=O)[C@H](CCCCN)NC(=O)CNC(=O)[C@H](CCC(N)=O)NC(=O)[C@H](CC(C)C)NC(=O)[C@@H](N)CCC(N)=O)C(C)C)C(C)C)C(C)C)C(C)C)C(=O)N[C@@H](CCC(N)=O)C(=O)N[C@@H](CO)C(=O)N[C@H](C(=O)N[C@@H](C)C(=O)N[C@@H](CCCCN)C(=O)N1CCC[C@H]1C(N)=O)C(C)C` [QLQGKQVSGEVVQKVLQELIQSVAKP], the MIC was 6.22 µM (≈ 17.6 µg/mL) in [32]; 4.23 µM (≈ 12 µg/mL) in experiment [33]; 4.23 µM (≈ 12 µg/mL) in experiment [34]; 6.22 µM (≈ 17.6 µg/mL) in [35]; 4.23 µM (≈ 12 µg/mL) in experiment [36]; 4.23 µM (≈ 12 µg/mL) in experiment [37]. For the same compound, the MIC in experiment [38], in experiment [39], in experiment [40], in experiment [41] and in experiment [42] was 6.22 µM (≈ 17.6 µg/mL) in each case.
